The source made the active and inactive calls.
Experiments:
[1] = molecular target: Heat shock protein HSP 90-alpha (Homo sapiens, UniProt P07900); format: functional, organism-based
[2] = A High Throughput Confirmatory Assay used to Identify Novel Compounds that Inhibit Mycobacterium Tuberculosis in the absence of Glycerol.; format: functional
[3] = microbe, parasite or virus in culture; format: functional; settings: Mycobacterium tuberculosis
[4] = HIV-1 Env-mediated cell fusion inhibitors, dose response, CCR5-tropic Env (AID 2279); format: functional
[5] = molecular target: Genome polyprotein (dengue virus type 2, UniProt P29990); assay: Dengue-2 NS5 methyltransferase inhibitors, primary screen, biochemical, confirmation dose response (AID 588689); format: functional
[6] = molecular target: Protein-tyrosine kinase 2-beta (Homo sapiens, UniProt Q14289);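 note: potency of inhibitors of PYK2 kinase phosphorylation of poly-GT substrate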
Protein-tyrosine kinase 2-beta, sequence (Q14289 whole entry): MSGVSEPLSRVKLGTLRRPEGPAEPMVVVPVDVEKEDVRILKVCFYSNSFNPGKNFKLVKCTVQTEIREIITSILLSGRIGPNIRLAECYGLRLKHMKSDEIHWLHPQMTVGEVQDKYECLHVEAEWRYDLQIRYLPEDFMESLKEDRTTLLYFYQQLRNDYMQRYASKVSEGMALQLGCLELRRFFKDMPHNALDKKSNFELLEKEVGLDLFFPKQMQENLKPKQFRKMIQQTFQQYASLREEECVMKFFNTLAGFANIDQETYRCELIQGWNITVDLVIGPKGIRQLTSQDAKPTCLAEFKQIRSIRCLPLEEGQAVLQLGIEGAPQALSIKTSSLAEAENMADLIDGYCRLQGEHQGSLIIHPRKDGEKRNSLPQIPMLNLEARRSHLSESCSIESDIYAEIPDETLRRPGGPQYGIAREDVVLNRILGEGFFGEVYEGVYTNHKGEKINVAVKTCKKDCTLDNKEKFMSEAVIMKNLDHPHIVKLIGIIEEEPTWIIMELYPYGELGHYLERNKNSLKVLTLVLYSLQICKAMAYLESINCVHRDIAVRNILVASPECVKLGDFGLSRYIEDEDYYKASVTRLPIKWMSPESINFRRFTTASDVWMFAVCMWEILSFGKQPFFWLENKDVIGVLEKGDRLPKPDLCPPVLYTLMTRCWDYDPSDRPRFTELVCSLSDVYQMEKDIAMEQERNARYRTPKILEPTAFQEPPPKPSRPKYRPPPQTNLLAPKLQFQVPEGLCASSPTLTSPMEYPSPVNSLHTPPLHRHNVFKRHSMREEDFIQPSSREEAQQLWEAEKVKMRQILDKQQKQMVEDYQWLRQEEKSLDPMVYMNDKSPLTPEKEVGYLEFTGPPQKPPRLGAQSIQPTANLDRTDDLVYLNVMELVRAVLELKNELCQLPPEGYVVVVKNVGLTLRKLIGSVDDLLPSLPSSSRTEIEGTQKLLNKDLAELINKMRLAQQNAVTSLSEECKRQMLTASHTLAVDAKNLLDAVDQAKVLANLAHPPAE

[7] = molecular target: Cytochrome P450 2C9 (Homo sapiens, UniProt P11712)
[8] = Luminescence Cell-Based Dose Confirmation HTS to Identify Inhibitors of Polyadenylation.; format: functional
[9] = molecular target: Sphingosine 1-phosphate receptor 2 (Homo sapiens, UniProt O95136); assay: Dose Response Cell Based Assay for Agonists of the S1P2 Receptor of Purchased Analogues. [Related pubchem assays: 729, 843, 854, 736 ]; format: functional
[10] = molecular target: T1, Corticotropin-releasing factor receptor 2/Corticotropin-releasing factor-binding protein (Homo sapiens, UniProt P24387+Q13324); assay: Dose Response confirmation of uHTS hits for small molecule antagonists of the CRF-binding protein and CRF-R2 receptor complex.; format: functional; settings: read-out: IC50_Mean
T1 sequence (Q13324 whole entry): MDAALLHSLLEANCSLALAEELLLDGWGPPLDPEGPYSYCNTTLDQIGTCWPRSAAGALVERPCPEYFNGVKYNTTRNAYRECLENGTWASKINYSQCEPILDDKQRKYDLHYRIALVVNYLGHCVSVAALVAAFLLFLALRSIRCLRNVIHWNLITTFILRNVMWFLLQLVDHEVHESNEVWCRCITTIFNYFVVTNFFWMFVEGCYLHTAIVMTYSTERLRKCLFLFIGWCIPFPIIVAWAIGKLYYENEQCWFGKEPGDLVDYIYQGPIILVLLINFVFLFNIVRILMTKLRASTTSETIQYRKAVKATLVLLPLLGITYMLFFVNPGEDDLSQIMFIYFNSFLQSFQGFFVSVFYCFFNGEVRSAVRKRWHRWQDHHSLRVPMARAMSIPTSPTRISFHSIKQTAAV
T1 sequence (P24387 whole entry): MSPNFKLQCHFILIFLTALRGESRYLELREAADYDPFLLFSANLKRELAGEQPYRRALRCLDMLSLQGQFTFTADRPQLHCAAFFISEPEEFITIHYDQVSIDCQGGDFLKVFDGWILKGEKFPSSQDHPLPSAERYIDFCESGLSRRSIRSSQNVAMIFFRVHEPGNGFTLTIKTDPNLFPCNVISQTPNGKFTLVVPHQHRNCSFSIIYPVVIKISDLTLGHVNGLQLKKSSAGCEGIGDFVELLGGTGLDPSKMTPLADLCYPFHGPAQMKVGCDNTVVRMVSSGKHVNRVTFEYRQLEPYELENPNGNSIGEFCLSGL

[11] = molecular target: T1, Corticotropin-releasing factor receptor 2/Corticotropin-releasing factor-binding protein; assay: activators of CRF receptor 2 with binding protein – uHTS hits, confirmation (AID 602473); format: functional; settings: read-out: EC50_Mean
[12] = CRF-BP/CRF-R2 complex antagonists, dose response, cell-based, uHTS hits, 384-well (AID 651639); format: functional, Homo sapiens; settings: read-out: IC50_Mean
[13] = molecular target: Mucolipin-3 (Homo sapiens, UniProt Q8TDD5); assay: Dose response cell-based high-throughput screening assay for agonists of the transient receptor potential channel ML3 (TRPML3). [Related pubchem assays: 1526, 1424, 1448 ]; format: functional
[14] = molecular target: Ion channel NompC (Danio rerio, UniProt Q7T1G6); assay: Fluorescence counterscreen assay for TRPML3 agonists: dose response cell-based high-throughput screening assay to identify agonists of the transient receptor potential channel N1 (TRPN1). [Related pubchem assays: 1526, 1424, 1448 ]; format: functional
[15] = molecular target: T2, Estrogen receptor (Homo sapiens, UniProt P03372); assay: potentiators of ERα–SRC-1 coactivator binding, dose response, biochemical, TR-FRET, ERα LBD (AID 737)
T2 sequence (P03372 whole entry): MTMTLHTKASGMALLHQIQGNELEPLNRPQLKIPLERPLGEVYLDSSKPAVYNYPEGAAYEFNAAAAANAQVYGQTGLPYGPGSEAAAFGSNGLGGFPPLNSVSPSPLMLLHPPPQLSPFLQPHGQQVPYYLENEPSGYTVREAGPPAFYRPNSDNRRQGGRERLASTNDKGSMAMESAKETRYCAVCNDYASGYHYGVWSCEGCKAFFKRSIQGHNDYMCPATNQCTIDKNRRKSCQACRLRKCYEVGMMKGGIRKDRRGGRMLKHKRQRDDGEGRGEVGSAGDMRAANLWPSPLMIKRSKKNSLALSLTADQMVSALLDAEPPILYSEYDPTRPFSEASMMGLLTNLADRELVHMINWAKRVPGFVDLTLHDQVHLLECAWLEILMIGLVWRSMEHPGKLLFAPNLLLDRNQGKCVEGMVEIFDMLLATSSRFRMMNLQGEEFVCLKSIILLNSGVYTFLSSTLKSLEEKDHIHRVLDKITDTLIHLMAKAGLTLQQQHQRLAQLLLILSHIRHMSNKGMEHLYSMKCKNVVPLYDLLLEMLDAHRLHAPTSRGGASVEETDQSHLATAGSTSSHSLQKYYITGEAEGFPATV

[16] = inhibitors of Bluetongue virus cytopathic effect, confirmation, arbovirus, BSR cells (AID 1250); format: functional;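 note: protection from viral cytopathic effect measured as cell viability by ATP luminescence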
[17] = molecular target: T3, Dual specificity protein phosphatase 6 (Rattus norvegicus, UniProt Q64346); assay: MKP-3 phosphatase inhibitors, primary screen, biochemical, rat enzyme, in vitro (AID 425)
T3 sequence (Q64346 whole entry): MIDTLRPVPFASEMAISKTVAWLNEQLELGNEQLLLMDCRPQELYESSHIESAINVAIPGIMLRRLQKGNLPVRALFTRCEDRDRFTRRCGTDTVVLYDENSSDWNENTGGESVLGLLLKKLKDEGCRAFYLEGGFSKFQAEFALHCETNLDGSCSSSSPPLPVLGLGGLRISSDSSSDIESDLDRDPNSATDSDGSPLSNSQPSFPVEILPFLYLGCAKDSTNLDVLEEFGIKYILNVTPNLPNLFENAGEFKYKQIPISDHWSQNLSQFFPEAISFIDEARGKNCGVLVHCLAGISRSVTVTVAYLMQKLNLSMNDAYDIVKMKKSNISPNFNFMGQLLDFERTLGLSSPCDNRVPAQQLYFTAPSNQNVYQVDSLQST

[18] = test system: Vero; assay: host cell cytotoxicity of antiviral hits, dose response, cytotoxicity control for West Nile virus antiviral project, secondary assay (AID 1650); format: functional; settings: Chlorocebus sabaeus
[19] = molecular target: Neuropeptide Y receptor type 1 (Homo sapiens, UniProt P25929); format: functional;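 note: HEK293 cells with a CNG channel challenged with NPY then isoproterenol; potency as antagonist that reverses NPY suppression of cAMP signal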
[20] = molecular target: Neuropeptide Y receptor type 2 (Homo sapiens, UniProt P49146); format: functional, cell-based;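 note: HEK293 cells expressing the receptor and a CNG channel; stimulus was NPY near EC95 followed by isoproterenol to raise cAMP; antagonist potency measured as restoring cAMP signal that NPY suppresses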
Neuropeptide Y receptor type 2, sequence (P49146 whole entry): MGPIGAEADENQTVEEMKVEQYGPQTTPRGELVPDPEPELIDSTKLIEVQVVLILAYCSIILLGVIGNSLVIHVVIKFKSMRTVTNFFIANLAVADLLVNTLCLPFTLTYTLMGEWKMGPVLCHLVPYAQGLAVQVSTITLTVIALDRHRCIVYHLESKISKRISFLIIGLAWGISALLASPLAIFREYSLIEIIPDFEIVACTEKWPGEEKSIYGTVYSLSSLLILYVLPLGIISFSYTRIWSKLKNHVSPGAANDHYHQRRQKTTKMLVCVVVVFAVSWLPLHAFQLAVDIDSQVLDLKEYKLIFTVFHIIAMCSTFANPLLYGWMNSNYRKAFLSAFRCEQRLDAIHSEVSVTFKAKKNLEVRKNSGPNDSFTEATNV

[21] = molecular target: T4, Protein skinhead-1 (Caenorhabditis elegans, UniProt P34707); format: functional
T4 sequence (P34707 whole entry): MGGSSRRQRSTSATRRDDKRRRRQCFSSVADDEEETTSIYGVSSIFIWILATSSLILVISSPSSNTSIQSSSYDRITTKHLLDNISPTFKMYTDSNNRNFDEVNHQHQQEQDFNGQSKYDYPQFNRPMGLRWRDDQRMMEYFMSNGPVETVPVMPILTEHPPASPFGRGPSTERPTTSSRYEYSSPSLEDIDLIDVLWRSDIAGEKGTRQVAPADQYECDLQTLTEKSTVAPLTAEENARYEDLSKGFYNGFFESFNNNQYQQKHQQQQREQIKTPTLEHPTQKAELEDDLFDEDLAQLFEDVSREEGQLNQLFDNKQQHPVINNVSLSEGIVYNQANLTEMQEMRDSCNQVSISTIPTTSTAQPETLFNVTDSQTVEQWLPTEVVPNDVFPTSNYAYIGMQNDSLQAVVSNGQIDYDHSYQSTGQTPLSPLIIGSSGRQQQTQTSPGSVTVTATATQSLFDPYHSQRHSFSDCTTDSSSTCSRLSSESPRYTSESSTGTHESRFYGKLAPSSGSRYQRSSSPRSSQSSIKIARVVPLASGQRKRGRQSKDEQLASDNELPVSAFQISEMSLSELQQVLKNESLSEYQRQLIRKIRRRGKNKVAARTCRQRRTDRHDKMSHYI

[22] = molecular target: T5, Voltage-gated N-type calcium channel alpha-1B subunit/Amyloid beta A4 precursor protein-binding family A member 1 (Homo sapiens, UniProt Q00975+Q02410); format: protein assay
T5 sequence (Q00975 whole entry): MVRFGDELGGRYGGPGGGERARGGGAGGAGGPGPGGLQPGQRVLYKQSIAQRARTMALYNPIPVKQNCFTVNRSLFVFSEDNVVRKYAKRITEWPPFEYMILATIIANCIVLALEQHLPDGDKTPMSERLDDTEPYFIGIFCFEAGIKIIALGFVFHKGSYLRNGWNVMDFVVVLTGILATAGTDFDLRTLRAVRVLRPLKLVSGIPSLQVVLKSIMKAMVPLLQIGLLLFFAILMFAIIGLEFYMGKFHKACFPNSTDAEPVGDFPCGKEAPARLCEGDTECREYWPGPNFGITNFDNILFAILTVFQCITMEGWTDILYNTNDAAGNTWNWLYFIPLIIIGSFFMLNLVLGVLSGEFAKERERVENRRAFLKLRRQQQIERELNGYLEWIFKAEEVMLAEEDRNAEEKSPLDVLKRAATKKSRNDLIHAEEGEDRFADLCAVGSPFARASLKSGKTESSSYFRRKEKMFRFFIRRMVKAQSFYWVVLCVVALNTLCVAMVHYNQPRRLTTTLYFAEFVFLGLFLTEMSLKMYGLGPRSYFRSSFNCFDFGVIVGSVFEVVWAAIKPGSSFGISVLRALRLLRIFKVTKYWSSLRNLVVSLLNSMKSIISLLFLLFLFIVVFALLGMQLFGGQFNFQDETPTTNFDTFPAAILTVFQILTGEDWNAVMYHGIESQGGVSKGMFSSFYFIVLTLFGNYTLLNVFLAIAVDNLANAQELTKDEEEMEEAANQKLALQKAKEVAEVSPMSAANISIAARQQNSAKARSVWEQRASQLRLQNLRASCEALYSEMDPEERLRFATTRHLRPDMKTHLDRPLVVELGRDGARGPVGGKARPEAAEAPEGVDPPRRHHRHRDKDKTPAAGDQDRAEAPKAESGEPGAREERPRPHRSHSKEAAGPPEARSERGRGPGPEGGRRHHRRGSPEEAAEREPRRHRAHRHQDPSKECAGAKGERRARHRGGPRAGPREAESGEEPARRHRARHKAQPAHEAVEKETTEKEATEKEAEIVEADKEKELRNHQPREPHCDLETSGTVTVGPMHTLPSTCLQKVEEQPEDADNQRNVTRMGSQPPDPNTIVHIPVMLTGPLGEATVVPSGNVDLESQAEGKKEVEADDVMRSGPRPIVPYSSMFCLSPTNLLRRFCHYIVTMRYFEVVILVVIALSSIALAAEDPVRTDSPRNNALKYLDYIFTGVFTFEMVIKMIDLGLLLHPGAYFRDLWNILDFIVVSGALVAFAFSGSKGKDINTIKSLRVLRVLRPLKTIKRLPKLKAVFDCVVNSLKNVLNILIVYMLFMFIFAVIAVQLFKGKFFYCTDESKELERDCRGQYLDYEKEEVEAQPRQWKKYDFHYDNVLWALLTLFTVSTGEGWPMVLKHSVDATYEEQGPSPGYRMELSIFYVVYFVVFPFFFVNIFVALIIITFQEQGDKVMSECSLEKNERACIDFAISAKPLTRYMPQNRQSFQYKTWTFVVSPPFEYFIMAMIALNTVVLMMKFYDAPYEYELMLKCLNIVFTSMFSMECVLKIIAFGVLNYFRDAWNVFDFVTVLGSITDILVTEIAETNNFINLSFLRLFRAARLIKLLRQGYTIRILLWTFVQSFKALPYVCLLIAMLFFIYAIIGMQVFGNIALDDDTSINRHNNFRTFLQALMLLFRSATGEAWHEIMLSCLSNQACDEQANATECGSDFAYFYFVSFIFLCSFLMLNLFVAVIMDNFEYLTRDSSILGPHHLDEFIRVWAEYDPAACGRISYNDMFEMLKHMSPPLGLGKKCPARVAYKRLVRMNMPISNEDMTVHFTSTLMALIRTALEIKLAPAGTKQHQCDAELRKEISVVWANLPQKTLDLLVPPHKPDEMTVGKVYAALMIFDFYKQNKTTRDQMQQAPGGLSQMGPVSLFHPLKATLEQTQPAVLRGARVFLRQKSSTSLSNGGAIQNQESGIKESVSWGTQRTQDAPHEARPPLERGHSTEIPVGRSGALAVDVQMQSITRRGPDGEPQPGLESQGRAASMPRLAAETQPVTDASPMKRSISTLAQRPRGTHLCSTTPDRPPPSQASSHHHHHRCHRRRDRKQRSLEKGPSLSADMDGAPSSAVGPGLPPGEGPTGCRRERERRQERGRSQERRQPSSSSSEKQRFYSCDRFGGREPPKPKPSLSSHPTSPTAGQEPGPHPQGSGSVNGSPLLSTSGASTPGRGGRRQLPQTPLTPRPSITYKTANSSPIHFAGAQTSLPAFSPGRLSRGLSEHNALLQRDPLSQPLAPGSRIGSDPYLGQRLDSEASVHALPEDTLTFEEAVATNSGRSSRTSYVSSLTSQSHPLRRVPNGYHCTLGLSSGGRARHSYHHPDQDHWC
T5 sequence (Q02410 whole entry): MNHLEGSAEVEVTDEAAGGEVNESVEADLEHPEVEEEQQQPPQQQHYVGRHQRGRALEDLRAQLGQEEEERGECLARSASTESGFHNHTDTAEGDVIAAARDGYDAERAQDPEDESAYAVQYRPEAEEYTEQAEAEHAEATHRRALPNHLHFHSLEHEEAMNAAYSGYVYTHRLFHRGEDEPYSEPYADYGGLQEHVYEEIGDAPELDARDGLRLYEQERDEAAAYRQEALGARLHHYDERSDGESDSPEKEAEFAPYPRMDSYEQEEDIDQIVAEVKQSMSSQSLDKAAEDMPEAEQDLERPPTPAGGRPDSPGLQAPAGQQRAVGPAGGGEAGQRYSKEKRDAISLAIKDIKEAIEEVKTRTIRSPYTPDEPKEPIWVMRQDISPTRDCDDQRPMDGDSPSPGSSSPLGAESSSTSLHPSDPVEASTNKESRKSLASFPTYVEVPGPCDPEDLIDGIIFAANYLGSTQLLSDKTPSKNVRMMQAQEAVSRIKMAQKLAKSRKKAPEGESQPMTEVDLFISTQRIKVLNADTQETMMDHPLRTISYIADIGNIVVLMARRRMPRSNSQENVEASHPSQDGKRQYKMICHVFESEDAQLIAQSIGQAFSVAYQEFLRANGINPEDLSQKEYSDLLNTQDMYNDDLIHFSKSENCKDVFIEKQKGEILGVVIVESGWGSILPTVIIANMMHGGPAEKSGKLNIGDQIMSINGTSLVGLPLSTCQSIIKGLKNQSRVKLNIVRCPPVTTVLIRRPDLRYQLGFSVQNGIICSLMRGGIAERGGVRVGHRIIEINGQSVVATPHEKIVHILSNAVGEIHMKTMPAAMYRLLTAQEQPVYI

[23] = molecular target: T6, Mannose-6-phosphate isomerase (Homo sapiens, UniProt P34949); assay: inhibitors of human PMI, primary screen, biochemical, fluorescence intensity, coupled assay (AID 1209)
T6 sequence (P34949 whole entry): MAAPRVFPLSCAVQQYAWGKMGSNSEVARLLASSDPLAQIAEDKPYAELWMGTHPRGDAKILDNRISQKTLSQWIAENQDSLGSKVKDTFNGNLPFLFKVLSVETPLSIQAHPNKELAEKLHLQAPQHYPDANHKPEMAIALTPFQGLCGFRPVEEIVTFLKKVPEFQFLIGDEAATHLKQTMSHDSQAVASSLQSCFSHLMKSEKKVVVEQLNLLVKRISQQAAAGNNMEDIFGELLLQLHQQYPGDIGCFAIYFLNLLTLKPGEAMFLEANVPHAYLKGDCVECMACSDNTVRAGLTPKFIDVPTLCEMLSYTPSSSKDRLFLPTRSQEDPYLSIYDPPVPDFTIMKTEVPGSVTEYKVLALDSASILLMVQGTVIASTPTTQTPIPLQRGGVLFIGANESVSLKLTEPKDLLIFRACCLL

[24] = molecular target: T5, Voltage-gated N-type calcium channel alpha-1B subunit/Amyloid beta A4 precursor protein-binding family A member 1; format: protein assay; remark: listed apart in the source
[25] = molecular target: Glucose-6-phosphate 1-dehydrogenase (Homo sapiens, UniProt P11413); assay: human G6PD enzyme inhibitors, dose response, selectivity assay for P. falciparum G6PD inhibitor project, biochemical, fluorescence (AID 504792); format: functional
Glucose-6-phosphate 1-dehydrogenase, sequence (P11413 whole entry): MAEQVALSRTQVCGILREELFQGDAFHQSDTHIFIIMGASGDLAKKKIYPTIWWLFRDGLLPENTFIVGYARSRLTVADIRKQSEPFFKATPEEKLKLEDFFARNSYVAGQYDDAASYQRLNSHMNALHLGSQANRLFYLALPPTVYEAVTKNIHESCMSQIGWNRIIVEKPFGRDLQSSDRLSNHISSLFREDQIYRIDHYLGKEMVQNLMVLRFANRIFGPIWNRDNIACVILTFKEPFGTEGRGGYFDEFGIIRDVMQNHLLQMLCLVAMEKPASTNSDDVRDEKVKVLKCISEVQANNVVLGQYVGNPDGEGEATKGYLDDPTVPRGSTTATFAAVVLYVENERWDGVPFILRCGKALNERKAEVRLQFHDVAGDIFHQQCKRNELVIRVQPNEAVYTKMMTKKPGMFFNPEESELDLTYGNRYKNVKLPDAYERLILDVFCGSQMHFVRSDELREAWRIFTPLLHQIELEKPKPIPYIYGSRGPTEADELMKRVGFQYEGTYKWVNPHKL

With `O=C(OCC(=O)N1CCN(C(=O)c2ccco2)CC1)c1cc(-c2cccc(Br)c2)nc2ccccc12` the AC50 [1] was 4.25 µM (active), the IC50 [2] was > 100 µM (active) and the CC50 [3] was 14.4 µM (active).
With `CCCOc1cccc(C2C(C(=O)c3cc4ccccc4o3)=C(O)C(=O)N2c2cc(C)on2)c1` (stereo not given) the IC50 [4] was 44.5 µM (active) and the IC50 [5] was 32.6 µM (active).
In the case of `COc1ccc(-c2coc3cc4oc(=O)cc(C)c4cc23)cc1F`, the IC50 [6] is reported as 12.5 µM (not active) and the AC50 [7] is reported as 5.01 µM (inconclusive).
In the case of `COc1cc(C2CC(=O)Oc3c(C(CCN4CCOCC4)c4ccc(N(C)C)cc4)c(OC)cc(OC)c32)cc(OC)c1OC` (stereo not given), the EC50 [8] is reported as > 120 µM (not active).
For `Cc1cc(C(=O)CN2C(=O)NC(Cc3ccccc3)C2=O)c(C)n1Cc1ccccc1` (stereo not given), the EC50 [9] was > 30 µM (not active).
With `Cc1ccc(S(=O)(=O)N2CCCCCC2)cc1[N+](=O)[O-]` the IC50 [10] was 18.3 µM (active), the EC50 [11] was > 53 µM (inactive) and the IC50 [12] was > 20 µM (inactive). The EC50 [13] was 5.29 µM (active) and the EC50 [14] was > 29.9 µM (not active).
With `O=C(Nc1nccs1)c1nc(-c2ccccc2)n(-c2ccccc2)n1` the EC50 [15] was 18.6 µM (active).
For `Cc1ccc(C)c(S(=O)(=O)N2CCN(C(C)C(=O)Nc3ccccc3-c3ccccc3)CC2)c1` (stereo not given), the IC50 [16] was 44.1 µM (active).
With `COc1ccc(Cn2c(C)nc3c(c2=O)c2nc4ccccc4nc2n3Cc2ccco2)cc1` the IC50 [17] was 6.78 µM (active).
For `CC(=O)Nc1cccc(C(=O)/C=C/c2ccc(F)cc2)c1`, the CC50 [18] was 20.6 µM (active).
For `c1ccc(-c2nc(CSc3nnc(-c4cccs4)o3)cs2)cc1`, the IC50 [19] was 12.8 µM (not active), the IC50 [20] was 17.3 µM (not active) and the IC50 [21] was > 100 µM (inactive).
In the case of `COc1ccc(N2CSC3=C(C#N)C(c4cc(OC)c(OC)cc4OC)CC(=O)N3C2)c(OC)c1` (stereo not given), the IC50 [22] is reported as 42.3 µM (active), the IC50 [23] is reported as 4.3 µM (active) and the IC50 [24] is reported as 11.3 µM (active). The IC50 [25] was 42.5 µM (inactive).

Reference: ChEMBL document CHEMBL1201862, “PubChem BioAssay data set” (2004)
